The test system of data set [1] is Trypanosoma brucei. The data set is described as follows: Inhibition of recombinant Trypanosoma brucei GAPDH assessed as oxidative phosphorylation of D-glyceraldehyde-3-phosphate to 1,3-bisphosphoglycerate at 5 uM by spectrophotometric method relative to 2-phenoxy-1,4-naphthoquinone.
Data set [2] has as its system L6. The data set is described as follows: Cytotoxicity against rat L6 cells after 72 hrs by alamar blue assay. The note with it: L6, 72 h. It counts as cell-based. For orientation: The colour change of resazurin is a common sign of viable cells or microbes.
A short description of data set [3]: Selectivity index, ratio of IC50 for rat L6 cells to IC50 for bloodstream forms of Trypanosoma brucei rhodesiense STIB 900. It counts as toxicity, cell-based. As to conditions: read-out: Ratio IC50.
The subject of data set [4] is Leishmania donovani. As to the kind of experiment: Antitrypanosomal activity against amastigotes of Leishmania donovani MHOM/ET/67/L82 after 72 hrs by inverted microscope analysis. As to conditions: MHOM/ET/67/L82, 72 h. The class given is functional, organism-based.
The species entered for data set [5] is Bos taurus. As to the kind of experiment: Inhibition of electron transport protein complex 2 in bovine hear mitochondria assessed as reduction of succinate-induced oxygen consumption at 5 uM.
In data set [6] the test system is Trypanosoma brucei rhodesiense. As to the kind of experiment: Antitrypanosomal activity against bloodstream forms of Trypanosoma brucei rhodesiense STIB 900 after 72 hrs by alamar blue assay. The note with it: STIB 900, 72 h. It counts as functional, organism-based.
The nature of data set [7]: Selectivity index, ratio of IC50 for rat L6 cells to IC50 for amastigotes of Leishmania donovani MHOM/ET/67/L82. It counts as toxicity, cell-based. As to conditions: read-out: Ratio IC50.

Molecules are shown by their SMILES. Activity calls are given as the source filed them. The rule behind the calls is not given here.

The inhibition is the relative decrease from the control value, in per cent. The IC50 is the point on the concentration scale where inhibition reaches its midpoint. The low end stands for greater potency, the high end for weaker potency. As to `Cc1ccc(OC2=CC(=O)c3cc4ccccc4cc3C2=O)cc1`, the inhibition in data set [1] came to 0%. Moreover, the IC50 turned out to be 130 nM in data set [2], 1160 nM in data set [4] and 730 nM in data set [6]. Also, the results for the selectivity ratio in data set [3] and in data set [7] were 0.17 and 0.11, respectively. The inhibition entry in data set [5] is “inactive”.

Regarding `COc1cccc2c1C(=O)C(Oc1ccccc1)=CC2=O`, the inhibition in data set [1] was 72%. The IC50 in data set [2] was 640 nM; in data set [4], 13100 nM; in data set [6] it was 1760 nM. The selectivity ratio was 0.36 in data set [3] and 0.05 in data set [7]. Moreover, the inhibition entry in data set [5] is “inactive”.

For the molecule `COc1cccc2c1C(=O)C=C(Oc1ccc(C)cc1)C2=O`, in data set [1], the inhibition was found to be 40%. Besides, the IC50 in data set [2] turned out to be 1490 nM; in data set [4] it was 2640 nM; in data set [6] it was 550 nM. Also, the figures for the selectivity ratio in data set [3] and in data set [7] were 2.71 and 0.57, respectively. Further, the inhibition entry in data set [5] was “inactive”.

With `Cc1ccc(OC2=CC(=O)c3c(O)cccc3C2=O)cc1`, in data set [1], the inhibition turned out to be 40%. For the same molecule, the IC50 in data set [2] was determined as 1030 nM; in data set [4], 5460 nM; in data set [6], 2370 nM. Further, the selectivity ratio in data set [3] was 0.44; in data set [7], 0.19. Further, the inhibition entry in data set [5] is “inactive”.

For `O=C(Cn1ccnc1[N+](=O)[O-])NCc1ccccc1` [BENZNIDAZOLE], in data set [2], the IC50 was more than 384000 nM.

`COc1cccc2c1C(=O)C=C(Oc1ccc(F)cc1)C2=O`: the inhibition in data set [1] came to 120%. The IC50 amounted to 1340 nM in data set [2], 3720 nM in data set [4] and 670 nM in data set [6]. Moreover, the selectivity ratio in data set [3] stood at 1.99; in data set [7] it was 0.36. Also, the inhibition result in data set [5] is “inactive”.

Take `COc1cccc2c1C(=O)C(Oc1ccc(C)cc1)=CC2=O`: the inhibition in data set [1] turned out to be 20%. Further, the IC50 in data set [2] worked out at 750 nM; in data set [4] it was 10900 nM; in data set [6], 2180 nM. Also, the figures for the selectivity ratio in data set [3] and in data set [7] were 0.34 and 0.07, respectively. Also, the inhibition entry in data set [5] was “inactive”.

For the molecule `COc1ccc(OC2=CC(=O)c3cccc(O)c3C2=O)cc1`, the inhibition in data set [1] worked out at 76%. For the same molecule, the IC50 in data set [2] is 1040 nM; in data set [4], 3130 nM; in data set [6], 1710 nM. The selectivity ratio in data set [3] is 0.61; in data set [7], 0.33. The inhibition result in data set [5] is “inactive”.

On to `Nc1nc(N)nc(Nc2ccc([As]3SCC(CO)S3)cc2)n1` (stereo not drawn) [MELARSOPROL], for which the selectivity ratio in data set [3] was 1830.

In the case of `COc1cccc2c1C(=O)C(Oc1ccc(NC(C)=O)cc1)=CC2=O`, the inhibition in data set [1] was determined as 64%. Moreover, the IC50 in data set [2] is 650 nM; in data set [4] it was 5870 nM; in data set [6], 4150 nM. For the same molecule, the selectivity ratio turned out to be 0.16 in data set [3] and 0.11 in data set [7]. Moreover, the inhibition result in data set [5] was “inactive”.

As to `O=C1C(Oc2ccc(F)cc2)=CC(=O)c2c(O)cccc21`, in data set [1], the inhibition is 136%. Moreover, the IC50 was 1410 nM in data set [2], 2990 nM in data set [4] and 2690 nM in data set [6]. In addition, the selectivity ratio in data set [3] was 0.52; in data set [7], 0.47. Further, in data set [5], the inhibition result was “inactive”.

On to `COc1cccc2c1C(=O)C=C(Oc1ccccc1)C2=O`, for which, in data set [1], the inhibition was 88%. Further, the results for the IC50 in data set [2], in data set [4] and in data set [6] were 1850 nM, 5600 nM and 680 nM, respectively. Also, the selectivity ratio in data set [3] was 2.74; in data set [7] it was 0.33. Also, the inhibition entry in data set [5] is “inactive”.

As to `CC(=O)Nc1ccc(OC2=CC(=O)c3c(O)cccc3C2=O)cc1`, in data set [1], the inhibition was 0%. Further, the IC50 was 590 nM in data set [2], 3800 nM in data set [4] and 2170 nM in data set [6]. The results for the selectivity ratio in data set [3] and in data set [7] were 0.27 and 0.15, respectively. The inhibition result in data set [5] was “inactive”.

Consider `O=C1C=C(Oc2ccc(F)cc2)C(=O)c2cc3ccccc3cc21`, for which the inhibition in data set [1] turned out to be 32%. For the same molecule, the figures for the half-inhibitory concentration (IC50) in data set [2], in data set [4] and in data set [6] were 1070 nM, 2140 nM and 1210 nM, respectively. The results for the selectivity ratio in data set [3] and in data set [7] were 0.88 and 0.5, respectively. Further, the inhibition entry in data set [5] was “inactive”.

Turning to `CC(=O)Nc1ccc(OC2=CC(=O)c3cc4ccccc4cc3C2=O)cc1`, the inhibition in data set [1] turned out to be 90%. In addition, the IC50 in data set [2] is 190 nM; in data set [4], 3250 nM; in data set [6], 1210 nM. The selectivity ratio in data set [3] is 0.16; in data set [7], 0.06. Also, in data set [5], the inhibition result is “inactive”.

In the case of `O=C1C=C(Oc2ccc(F)cc2)C(=O)c2c(O)cccc21`, the inhibition in data set [1] was 128%. The values for the IC50 in data set [2], in data set [4] and in data set [6] were 740 nM, 1330 nM and 1370 nM, respectively. For the same molecule, the selectivity ratio in data set [3] is 0.54; in data set [7], 0.55. In data set [5], the inhibition result was “inactive”.

As to `CC(=O)Nc1ccc(OC2=CC(=O)c3cccc(O)c3C2=O)cc1`, in data set [1], the inhibition came out at 48%. For the same molecule, the IC50 in data set [2] is 150 nM; in data set [4], 2330 nM; in data set [6] it was 650 nM. Moreover, the selectivity ratio was 0.24 in data set [3] and 0.07 in data set [7]. Further, the inhibition result in data set [5] was “inactive”.

For the molecule `COc1ccc(OC2=CC(=O)c3c(OC)cccc3C2=O)cc1`, in data set [1], the inhibition was determined as 44%. The IC50 in data set [2] came out at 1580 nM; in data set [4], 3090 nM; in data set [6], 640 nM. The values for the selectivity ratio in data set [3] and in data set [7] were 2.46 and 0.51, respectively. The inhibition result in data set [5] is “inactive”.

Take `O=C1C=C(Oc2ccccc2)C(=O)c2cc3ccccc3cc21`: the inhibition in data set [1] came to 68%.

On to `COc1ccc(OC2=CC(=O)c3c(O)cccc3C2=O)cc1`, for which, in data set [1], the inhibition worked out at 24%. In addition, the figures for the IC50 in data set [2], in data set [4] and in data set [6] were 1040 nM, 2110 nM and 1440 nM, respectively. In addition, the values for the selectivity ratio in data set [3] and in data set [7] were 0.73 and 0.5, respectively. Further, the inhibition result in data set [5] is “inactive”.

Regarding `CCCCCCCCCCCCCCCCOP(=O)([O-])OCC[N+](C)(C)C` [MILTEFOSINE], in data set [7], the selectivity ratio is 462.

With `COc1cc([C@@H]2c3cc4c(cc3[C@H](O)[C@H]3COC(=O)[C@H]23)OCO4)cc(OC)c1OC` [PODOFILOX], in data set [2], half-maximal inhibition (IC50) required 2 nM.

With `O=C1C=C(Oc2ccccc2)C(=O)c2c(O)cccc21`, the inhibition in data set [1] came out at 84%. In addition, the IC50 in data set [2] amounted to 1500 nM; in data set [4] it was 2960 nM; in data set [6] it was 850 nM. In addition, the selectivity ratio in data set [3] worked out at 1.76; in data set [7], 0.51. For the same molecule, the inhibition entry in data set [5] was “inactive”.

With `COc1ccc(OC2=CC(=O)c3cccc(OC)c3C2=O)cc1`, the inhibition in data set [1] was determined as 48%. Besides, the IC50 in data set [2] amounted to 1090 nM; in data set [4] it was 22500 nM; in data set [6], 6030 nM. Besides, the selectivity ratio was 0.18 in data set [3] and 0.05 in data set [7]. In addition, in data set [5], the inhibition result was “inactive”.

Source of the values: ChEMBL document CHEMBL3603776, “2-Phenoxy-1,4-naphthoquinones: From a Multitarget Antitrypanosomal to a Potential Antitumor Profile” (J Med Chem, 2015).
